Results taken from US10130684B2, “Oral dissolving films for insulin administration, for treating diabetes” (PHARMEDICA LTD., priority 2011, dated 2018).

Test system: cultured human buccal tissue (EpiOral)
Assay: In vitro buccal tissue permeation of insulin solutions with permeation enhancers
Format: in vitro ADME
Source text: To enable in vitro study of insulin release, the films were applied onto EpiOral tissues (MatTek) according to the Drug Absorption Protocol (ORL-202 & ORL-606), incorporated herein by reference. EpiOral tissues consist of normal, human-derived epithelial cells, which have been cultured to form multilayered, highly differentiated models of the human buccal phenotypes. EpiOral is a multilayered tissue consisting of an organized basal layer and multiple non-cornified layers analog to native human buccal tissue.
Insulin solution (0.60 mg/mL) was prepared in phosphate buffer (pH 6.8) solution (PBS). The above mentioned potential permeation enhancers were dissolved in the insulin solution to make solutions with desired ratios given in the table below:
Briefly, experiments were conducted in 37° C. incubator with 0.9 mL of PBS in receptor. 3.5 mL of donor solutions (n=4 for each formulation) were placed in the donor compartments. […] were collected from the receptor at time periods of 0.5, 1.0, 2.0, 3.0, 4.0 and 6.0 h, and were later assayed using HPLC.

increase of insulin release compared to the control (without a permeation enhancer) (Brij 35 as permeation enhancer): about 5 times | permeation effectiveness for insulin among the 3 tested compounds (Brij 58, Brij 35, sodium glycocholate compared): highest permeation effectiveness
Substance: polyoxyethylene (35) lauryl ether [Brij 35]
